The values that follow come from ChEMBL document CHEMBL1649459, “Analysis of cell membrane characteristics of in vitro-selected daptomycin-resistant strains of methicillin-resistant Staphylococcus aureus” (2009).

In brackets after ≈: the same amount, converted by molar mass.

Common to all, as to format: functional
Test [1] concerns Staphylococcus aureus. As to the kind of experiment: Antimicrobial activity against methicillin-resistant Staphylococcus aureus MW2 CB2201 after 1-day passage containing sublethal concentration of compound by Etest method. The following applies: MW2 CB2201, 24 h.
For test [2], the system named is Staphylococcus aureus. In words: Antimicrobial activity against methicillin-resistant Staphylococcus aureus MW2 CB1118 by Etest method.
For test [3], the system named is Staphylococcus aureus. As to the kind of experiment: Antimicrobial activity against methicillin-resistant Staphylococcus aureus MW2 CB2203 harboring […] MprF T345I, RpoB I953S mutant after 14-day passage containing sublethal concentration of compound by Etest method. The settings on record: MW2 CB2203, 336 h.
Test [4] relates to Staphylococcus aureus. In words: Antimicrobial activity against methicillin-resistant Staphylococcus aureus MW2 CB2205 harboring […] MprF T345I, RpoB I953S,YycG S221P mutant after 20-day passage containing sublethal concentration of compound by Etest method. The following applies: MW2 CB2205, 480 h.
Test [5] deals with Staphylococcus aureus. In words: Antimicrobial activity against methicillin-resistant Staphylococcus aureus MW2 CB2202 harboring […] MprF T345I mutant after 5-day passage containing sublethal concentration of compound by Etest method. The following applies: MW2 CB2202, 120 h.

As a reminder, the MIC is the least concentration at which growth counts as inhibited. Read a high MIC as weaker potency. Consider `CCCCCCCCCC(=O)N[C@@H](Cc1c[nH]c2ccccc12)C(=O)N[C@H](CC(N)=O)C(=O)N[C@@H](CC(=O)O)C(=O)N[C@@H]1C(=O)NCC(=O)N[C@@H](CCCN)C(=O)N[C@@H](CC(=O)O)C(=O)N[C@H](C)C(=O)N[C@@H](CC(=O)O)C(=O)NCC(=O)N[C@H](CO)C(=O)N[C@@H]([C@H](C)CC(=O)O)C(=O)N[C@@H](CC(=O)c2ccccc2N)C(=O)O[C@@H]1C`, for which the MIC turned out to be 1.5 µg/mL (≈ 0.926 µM) against Staphylococcus aureus [1]; 1 µg/mL (≈ 0.617 µM) in the test on Staphylococcus aureus [2]; 6 µg/mL (≈ 3.7 µM) in the test on Staphylococcus aureus [3]; 12 µg/mL (≈ 7.4 µM) against Staphylococcus aureus [4]; 3 µg/mL (≈ 1.85 µM) against Staphylococcus aureus [5].
